Publication PMC11589570, “Critical assessment of LC3/GABARAP ligands used for degrader development and ligandability of LC3/GABARAP binding pockets” (Nature Communications, 2024)
Like-named read-outs stand apart in the source and are kept apart here. Values belong to the molecule of their own block, whether it stands above or below them.

Biological target: GABARAPL2 (Homo sapiens, UniProt P60520)
Details: GABARAPL2:ligand molar ratio 1:2

Sequence of GABARAPL2 (P60520 whole entry): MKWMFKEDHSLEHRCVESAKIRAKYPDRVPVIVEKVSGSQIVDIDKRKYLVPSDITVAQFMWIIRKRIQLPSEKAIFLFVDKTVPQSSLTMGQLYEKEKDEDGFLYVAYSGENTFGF

- CSP (residue A19): 0.023 ppm
- CSP (residue A23): 0.017 ppm
- CSP (residue A58): 0.006 ppm
- CSP (residue A75): 0.00152 ppm
- CSP (residue A108): 0.001 ppm
- CSP (residue C15): 0.010 ppm
- CSP (residue D8): 0.011 ppm
- CSP (residue D43): 0.002 ppm
- CSP (residue D54): 0.011 ppm
- CSP (residue D81): 0.00158 ppm
- CSP (residue D100): 0.002 ppm
- CSP (residue D102): 0.015 ppm
- CSP (residue E7): 0.00272 ppm
- CSP (residue E12): 0.006 ppm
- CSP (residue E17): 0.011 ppm
- CSP (residue E34): 0.012 ppm
- CSP (residue E96): 0.00425 ppm
- CSP (residue E98): 0.005 ppm
- CSP (residue E101): 0.005 ppm
- CSP (residue F5, estimated): 0.010 ppm
- CSP (residue F60): 0.006 ppm
- CSP (residue F77): 0.00374 ppm
- CSP (residue F104): 0.019 ppm
- CSP (residue F115): 0.011 ppm
- CSP (residue G38): 0.024 ppm
- CSP (residue G103): 0.009 ppm
- CSP (residue G111): 0.00641 ppm
- CSP (residue H9): 0.012 ppm
- CSP (residue H13): 0.004 ppm
- CSP (residue I21): 0.013 ppm
- CSP (residue I32): 0.024 ppm
- CSP (residue I41): 0.011 ppm
- CSP (residue I44): 0.005 ppm
- CSP (residue I55): 0.003 ppm
- CSP (residue I63): 0.00457 ppm
- CSP (residue I64): 0.007 ppm
- CSP (residue I76): 0.00122 ppm
- CSP (residue K2): 0.007 ppm
- CSP (residue K6): 0.010 ppm
- CSP (residue K20): 0.015 ppm
- CSP (residue K24): 0.012 ppm
- CSP (residue K35): 0.010 ppm
- CSP (residue K46, estimated): 0.005 ppm
- CSP (residue K48): 0.050 ppm
- CSP (residue K66): 0.004 ppm
- CSP (residue K82, estimated): 0.002 ppm
- CSP (residue K97): 0.005 ppm
- CSP (residue K99): 0.004 ppm
- CSP (residue L11): 0.00364 ppm
- CSP (residue L50): 0.025 ppm
- CSP (residue L94): 0.011 ppm
- CSP (residue L105): 0.027 ppm
- CSP (residue M1): 0.00659 ppm
- CSP (residue M4, estimated): 0.003 ppm
- CSP (residue M61): 0.00531 ppm
- CSP (residue M91): 0.003 ppm
- CSP (residue P26, estimated): 0.020 ppm
- CSP (residue P30, estimated): 0.040 ppm
- CSP (residue P52, estimated): 0.020 ppm
- CSP (residue P71, estimated): 0.002 ppm
- CSP (residue P85, estimated): 0.002 ppm
- CSP (residue Q40): 0.000721 ppm
- CSP (residue Q59): 0.00467 ppm
- CSP (residue Q86): 0.003 ppm
- CSP (residue R14): 0.018 ppm
- CSP (residue R22): 0.020 ppm
- CSP (residue R28): 0.016 ppm
- CSP (residue R47, estimated): 0.020 ppm
- CSP (residue R65): 0.00158 ppm
- CSP (residue R67): 0.006 ppm
- CSP (residue S10): 0.010 ppm
- CSP (residue S18): 0.00255 ppm
- CSP (residue S37): 0.048 ppm
- CSP (residue S39): 0.003 ppm
- CSP (residue S53): 0.014 ppm
- CSP (residue S72): 0.00173 ppm
- CSP (residue S87): 0.000721 ppm
- CSP (residue S88): 0.00152 ppm
- CSP (residue S110): 0.00127 ppm
- CSP (residue T56): 0.00374 ppm
- CSP (residue T90): 0.0011 ppm
- CSP (residue V16): 0.014 ppm
- CSP (residue V29): 0.043 ppm
- CSP (residue V31): 0.038 ppm
- CSP (residue V33): 0.013 ppm
- CSP (residue V42): 0.00279 ppm
- CSP (residue V51): 0.046 ppm
- CSP (residue V57): 0.004 ppm
- CSP (residue V80): 0.008 ppm
- CSP (residue V84): 0.00263 ppm
- CSP (residue V107): 0.006 ppm
- CSP (residue W62): 0.015 ppm
- CSP (residue Y25): 0.034 ppm
- CSP (residue Y49): 0.064 ppm
- CSP (residue Y106): 0.023 ppm
- CSP (residue Y109): 0.009 ppm
SMILES: O=C1Nc2ccc(Br)cc2C1=Cc1cc(O)c(O)c(Br)c1 [compound 1]

- CSP (residue A19): 0.010 ppm
- CSP (residue A23): 0.008 ppm
- CSP (residue A58): 0.00237 ppm
- CSP (residue A108): 0.00221 ppm
- CSP (residue C15): 0.005 ppm
- CSP (residue D45): 0.004 ppm
- CSP (residue D54): 0.006 ppm
- CSP (residue D81): 0.00283 ppm
- CSP (residue D100): 0.00367 ppm
- CSP (residue D102): 0.009 ppm
- CSP (residue E12): 0.00212 ppm
- CSP (residue E17): 0.006 ppm
- CSP (residue E34): 0.010 ppm
- CSP (residue E73): 0.00212 ppm
- CSP (residue E96): 0.004 ppm
- CSP (residue E112): 0.002 ppm
- CSP (residue F5, estimated): 0.005 ppm
- CSP (residue F60): 0.005 ppm
- CSP (residue F77): 0.00281 ppm
- CSP (residue F104): 0.016 ppm
- CSP (residue F115): 0.009 ppm
- CSP (residue G38): 0.012 ppm
- CSP (residue G103): 0.005 ppm
- CSP (residue G111): 0.008 ppm
- CSP (residue H9): 0.016 ppm
- CSP (residue I21): 0.005 ppm
- CSP (residue I32): 0.005 ppm
- CSP (residue I41): 0.007 ppm
- CSP (residue I44): 0.002 ppm
- CSP (residue I55): 0.00171 ppm
- CSP (residue I63): 0.003 ppm
- CSP (residue I64): 0.006 ppm
- CSP (residue K2): 0.005 ppm
- CSP (residue K20): 0.009 ppm
- CSP (residue K24): 0.005 ppm
- CSP (residue K35): 0.007 ppm
- CSP (residue K46, estimated): 0.005 ppm
- CSP (residue K48): 0.007 ppm
- CSP (residue K66): 0.00316 ppm
- CSP (residue K74): 0.00148 ppm
- CSP (residue K82, estimated): 0.005 ppm
- CSP (residue K99): 0.00444 ppm
- CSP (residue L11): 0.00212 ppm
- CSP (residue L50): 0.031 ppm
- CSP (residue L70): 0.00283 ppm
- CSP (residue L78): 0.0017 ppm
- CSP (residue L94): 0.007 ppm
- CSP (residue L105): 0.00636 ppm
- CSP (residue M1): 0.014 ppm
- CSP (residue M4, estimated): 0.005 ppm
- CSP (residue M61): 0.00474 ppm
- CSP (residue M91): 0.005 ppm
- CSP (residue P26, estimated): 0.005 ppm
- CSP (residue P30, estimated): 0.010 ppm
- CSP (residue P52, estimated): 0.005 ppm
- CSP (residue P71, estimated): 0.005 ppm
- CSP (residue P85, estimated): 0.005 ppm
- CSP (residue Q40): 0.0017 ppm
- CSP (residue Q59): 0.002 ppm
- CSP (residue R14): 0.0095 ppm
- CSP (residue R28): 0.00851 ppm
- CSP (residue R47, estimated): 0.005 ppm
- CSP (residue R65): 0.0019 ppm
- CSP (residue R67): 0.004 ppm
- CSP (residue S10): 0.013 ppm
- CSP (residue S18): 0.002 ppm
- CSP (residue S37): 0.0065 ppm
- CSP (residue S39): 0.00356 ppm
- CSP (residue S53): 0.005 ppm
- CSP (residue S88): 0.00122 ppm
- CSP (residue S110): 0.00122 ppm
- CSP (residue T83): 0.00251 ppm
- CSP (residue T114): 0.00122 ppm
- CSP (residue V29): 0.0057 ppm
- CSP (residue V31): 0.025 ppm
- CSP (residue V36): 0.00316 ppm
- CSP (residue V42): 0.006 ppm
- CSP (residue V51): 0.009 ppm
- CSP (residue V80): 0.008 ppm
- CSP (residue V84): 0.00228 ppm
- CSP (residue V107): 0.006 ppm
- CSP (residue W3): 0.006 ppm
- CSP (residue Y49): 0.033 ppm
- CSP (residue Y95): 0.0022 ppm
- CSP (residue Y106): 0.007 ppm
- CSP (residue Y109): 0.007 ppm
SMILES: O=c1cc(-c2ccccc2)c2c(O)cc(O)cc2o1 [compound 2]
